Results on 1 compound are retold here after patent US20240335395A1, “COMPOSITIONS AND METHODS FOR PREVENTING AND/OR TREATING DISEASE ASSOCIATED WITH IL-23 EXPRESSION” (ALLSPIM, priority 2021, published 2024).

One assay concerns IL-1β, IL6 and TNFalpha. Nature of the assay: Endometriosis mouse model, cytokines in cell-free peritoneal lavage (ELISA). The format is in vivo. The settings on record: 50 mg/kg/day, 5 times a week, 6 weeks. As to the method:
Experimental design. Balb/C female mice (10 weeks old) were habituated for 3 days to take a jelly containing (group EDT+2,4D) or not (groups No EDT and EDT+Vehicle) the compound. Surgical implantation of endometrial tissue from syngenic female in peritoneum, was performed at day 0 for groups EDT+Vehicle and EDT+2,4D. […] The vehicle or treatment was then given 5 times a week (50 mg/kg/day) during 6 weeks. Mice were then sacrificed and the peritoneal inflammation was assessed. All the details of the protocol are depicted in FIG. 27. Cytokine measurement in cell-free peritoneal lavage. After mice were euthanized, 5 mL of PBS was injected into the peritoneal cavity and the diluted peritoneal fluid containing the cells was then retrieved. […] Cytokine concentration was assessed by ELISA kit in the peritoneal fluid (ThermoFisher, Mouse IL-1β, IL6 and TNFalpha Uncoated ELISA). […] The optical density was read with the Clariostar Plus Microplate Reader (BMG LABTECH), through the Clario software. Concentrations were calculated from a standard curve according to the manufacturer's protocol. Phenotypic study of immune cells from the peritoneal cavity assessed by flow cytometry. The pelleted peritoneal cells were resuspended in PBS-2% FBS and counted. […] All data were collected on LSR Fortessa flow cytometer (BD Bioscience, USA) and analyzed with FlowJo software. […]

Assay [1] concerns IBA1 positive macrophage/microglia. Nature of the assay: Laser-induced CNV in rats, IBA-1 positive macrophages on RPE-choroid flat-mounts. The format is in vivo, rat. Particulars: intravitreous injection. As to the method:
Animals. All experiments were performed in accordance with the European Communities Council Directive 86/609/EEC and approved by local ethical committees (#2541-2015110210279792 v3). Six- to eight-week-old male Long Evans rats from the Janvier Breeding Center (Le Genest-Saint-Isle, France) were used to create a rat model of choroidal neovascularization (CNV) used as a model of human wet macular degeneration. Laser-induced CNV. After anesthesia and dilation of the pupils, coverslips were positioned on the cornea as a contact glass. For rats, six or eight burns were performed 2 to 3 optic disc diameters away from the optic nerve with an Argon laser (532 nm) mounted on a slit lamp (175 mW, 0.1 s and 50 μm). Both eyes of animals received laser induction. The presence of a bubble witnessed the rupture of Bruch's membrane and confirmed a successful laser impact. Treatments. After laser photocoagulation, rats were divided into 3 treatment groups: —Intravitreous injection (IVT) of 2,4-D (identified as “new treatment”, New T), —IVT of vehicle (PBS), —IVT of triamcinolone acetonide (Kenacort® 40 mg/ml; TA) (n=12 rats per group). The IVT consisted of 5 μl injected with a 31G needle mounted on a micro-thin (100 μl) syringe posterior to the limbus, avoiding the lens. IVT was performed immediately after laser had been performed. […]

The structures appear in SMILES notation.

Take `COc1cc(O)c(OC)c(O)c1C(=O)/C=C/c1ccccc1` [2,4-D, 2′,4′-dihydroxy-3′,6′-dimethoxychalcone]: the “concentration of IL1-β, IL-6 and TNF-α in peritoneal lavage” value in the assay with IL-1β, IL6 and TNFalpha is reported as “tended to normalize”. In assay [1], the “number of infiltrating IBA-1 positive macrophages in CNV” value was “important reduction”.
